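Step 1: Grow cells in 96-well plates. Step 2: Expose to compound for 48 hours at 5 concentrations. Step 3: Interpolate endpoints linearly; if unreached, use highest concentration. At the GI50, growth is halved.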 Calls of active or inactive are those of the source. Rule as the data show it: active = GI50 up to about 1.1 µM and inactive = higher. Non-standard residues stand in square brackets, D forms with d. Residues, ends and D or L forms follow the SMILES beside them. ξ: configuration not given here. *: point of attachment. NMeF = CN[C@@H](Cc1ccccc1)C(=O)O; NMeN = CN[C@@H](CC(N)=O)C(=O)O; NMeV = CN[C@H](C(=O)O)C(C)C; ξNMeV = CNC(C(=O)O)C(C)C; Boc = CC(C)(C)OC(=O)*; ξNMeA = CNC(C)C(=O)O; ξV = CC(C)C(N)C(=O)O
Tests used:
Test in all cases: DTP human tumour cell line panel, 48 h
[1] = tested on: 786-0
[2] = tested on: CAKI-1
[3] = tested on: COLO 205
[4] = tested on: EKVX
[5] = tested on: HCT-116
[6] = tested on: HCT-15
[7] = tested on: HL-60
[8] = tested on: HOP-92
[9] = tested on: MCF7
[10] = tested on: MDA-MB-231
[11] = tested on: MDA-MB-435
[12] = tested on: MDA-N
[13] = tested on: NCI-H460
[14] = tested on: NCI/ADR-RES
[15] = tested on: OVCAR-4
[16] = tested on: SF-268
[17] = tested on: SF-539
[18] = tested on: SK-MEL-28
[19] = tested on: SR
[20] = tested on: TK-10

Measured: GI50

C[C@H]1[C@H](C)CC[C@]2(C(=O)OC3OC(CO)C(O)C(O)C3O)CC[C@]3(C)C(=CC[C@@H]4[C@@]5(C)C[C@H]6OC(=O)c7cc(O)c(O)c(O)c7-c7c(cc(O)c(O)c7O)C(=O)O[C@@H]6C(CO)(CO)[C@@H]5CC[C@]43C)[C@H]12 (stereo not given in full)
24.8 µM: [6]
inactive: [1] 19.5 µM | [2] 19.5 µM | [3] > 100 µM | [4] > 100 µM | [5] 54.1 µM | [7] 44 µM | [8] > 100 µM | [9] 17 µM | [10] 15.6 µM | [11] 18.7 µM | [12] 25.5 µM | [13] 45.1 µM | [14] > 100 µM | [15] 27.1 µM | [16] > 69.8 µM | [17] > 100 µM | [18] > 100 µM | [19] 27 µM | [20] > 100 µM

CN1C/C(=C\c2ccc(Cl)cc2)C(=O)/C(=C/c2ccc(Cl)cc2)C1
inactive: [2] 1.3 µM | [4] 15.6 µM | [8] > 26.9 µM | [11] 1.72 µM | [13] 1.17 µM | [14] 1.37 µM | [16] 1.63 µM | [18] 3.78 µM | [20] 8.75 µM
0.731 µM: [6]
active: [1] 0.354 µM | [3] 0.979 µM | [5] 0.208 µM | [7] 0.676 µM | [9] 0.453 µM | [10] 1.12 µM | [12] 0.861 µM | [15] 1.11 µM | [17] 0.512 µM | [19] 0.323 µM

COC(=O)C1CCC(=O)N1C(c1ccc(OC)cc1)c1ccc(OC)cc1 (stereo not given)
> 100 µM: [6]
inactive: [1] > 100 µM | [2] > 100 µM | [3] > 100 µM | [4] > 100 µM | [5] > 100 µM | [7] > 100 µM | [8] > 100 µM | [9] > 100 µM | [10] > 100 µM | [11] > 100 µM | [12] > 100 µM | [13] > 100 µM | [14] > 100 µM | [15] > 100 µM | [16] > 100 µM | [17] > 100 µM | [18] > 100 µM | [19] > 100 µM | [20] > 100 µM

COC(=O)C(C)N(C)C(=O)[C@H](CC(N)=O)N(C)C(=O)[C@@H]1CCCN1C(=O)[C@H](C(C)C)N(C)C(=O)C(C(C)C)N(C)C(=O)[C@H](Cc1ccccc1)N(C)C(=O)C(NC(=O)OC(C)(C)C)C(C)C (stereo not given in full) (Boc-[ξV][NMeF][ξNMeV][NMeV]P[NMeN][ξNMeA]-OMe)
22 µM: [6]
inactive: [1] 17.6 µM | [2] > 50 µM | [3] 13.3 µM | [4] > 50 µM | [5] 16.3 µM | [7] 15.6 µM | [8] 20.9 µM | [9] 14.2 µM | [10] 16.3 µM | [11] 23.2 µM | [12] 22.6 µM | [13] 37.2 µM | [14] > 50 µM | [15] > 50 µM | [16] 13.9 µM | [17] 28 µM | [18] 18.2 µM | [19] 5.15 µM | [20] 21.2 µM

CC1=CP(=O)(c2c(C(C)C)cc(C(C)C)cc2C(C)C)CCC1Cl (stereo not given)
active: [19] 0.769 µM
16 µM: [6]
inactive: [1] 18.1 µM | [2] 16.8 µM | [3] 14.9 µM | [4] 16 µM | [5] 20.1 µM | [7] 13.7 µM | [8] 13.6 µM | [9] 15.4 µM | [10] 15.3 µM | [11] 17.7 µM | [12] 21.7 µM | [13] 16 µM | [14] 15 µM | [15] 19.3 µM | [16] 16.3 µM | [17] 17.1 µM | [18] 18.6 µM | [20] 15.9 µM

O=C1C(/C=N/CCc2c[nH]c3ccccc23)C(C(F)(F)F)=NN1c1nc2ccccc2s1 (stereo not given)
29.9 µM: [6]
inactive: [1] 39.2 µM | [2] 37.2 µM | [3] 17.7 µM | [4] 23.1 µM | [5] 31.6 µM | [7] 19.8 µM | [8] 16.4 µM | [9] 23 µM | [10] 36.7 µM | [11] 25.4 µM | [12] 32.8 µM | [13] 24.1 µM | [14] 26.7 µM | [15] 26.7 µM | [16] 50.5 µM | [17] 31.1 µM | [18] 33.3 µM | [19] 31.6 µM | [20] 25.4 µM

O=C(O)C1CC(O)CN1 (stereo not given)
> 100 µM: [6]
inactive: [1] > 100 µM | [2] > 100 µM | [3] > 100 µM | [4] > 100 µM | [5] > 100 µM | [7] > 100 µM | [8] > 100 µM | [9] > 100 µM | [10] > 100 µM | [11] > 100 µM | [12] > 100 µM | [13] > 100 µM | [14] > 100 µM | [15] > 100 µM | [16] > 100 µM | [17] > 100 µM | [18] > 100 µM | [19] > 100 µM | [20] > 100 µM

CC(C)(C)c1cc(C(=O)C2Cc3ccccc3C(=O)O2)cc(C(C)(C)C)c1O (stereo not given)
12.4 µM: [6]
inactive: [1] 12.3 µM | [2] 19.3 µM | [3] 17.6 µM | [4] 12.3 µM | [5] 10.2 µM | [7] 4.88 µM | [8] 18.2 µM | [9] 12.5 µM | [10] 12.1 µM | [11] 10.7 µM | [12] 8.61 µM | [13] 10.9 µM | [14] 13 µM | [15] 11 µM | [16] 14.5 µM | [17] 14.2 µM | [18] 15.8 µM | [19] 3.59 µM | [20] 15.3 µM

Cc1cc(/N=C/c2ccc(N(C)C)cc2)n(-c2ccccc2)n1
inactive: [1] 51.8 µM | [2] 62.7 µM | [3] 24.8 µM | [4] 57.8 µM | [5] 25.5 µM | [7] 17.9 µM | [8] > 100 µM | [9] 31 µM | [10] 91.6 µM | [11] 4.4 µM | [12] 5.86 µM | [13] 23.9 µM | [14] 24.7 µM | [15] > 100 µM | [16] 74.3 µM | [17] 45.9 µM | [18] > 100 µM | [19] 19.1 µM | [20] 46.8 µM
15.6 µM: [6]

NS(=O)(=O)c1ccc(Nc2c3ccccc3nc3c(C(=O)NC(CO)(CO)CO)cccc23)cc1
active: [1] 0.0201 µM | [2] 0.218 µM | [3] 0.0515 µM | [4] 0.314 µM | [5] 0.144 µM | [7] 0.21 µM | [8] 0.153 µM | [9] 0.0143 µM | [10] 0.195 µM | [11] 0.212 µM | [12] 0.272 µM | [13] 0.0668 µM | [14] 0.769 µM | [15] 0.0598 µM | [16] 0.17 µM | [17] 0.204 µM | [18] 0.242 µM | [19] 0.334 µM | [20] 0.164 µM
0.282 µM: [6]

O=c1c2cc(S(=O)(=O)Nc3ccc(Cl)cc3Cl)ccc2ncn1NS(=O)(=O)c1cccc2ccccc12
inactive: [1] 42 µM | [2] 15.7 µM | [3] 43.7 µM | [4] 14.7 µM | [5] 30.5 µM | [7] 14.5 µM | [8] 16.2 µM | [9] 20.7 µM | [10] 20.4 µM | [11] 58.9 µM | [12] 48 µM | [13] 36.6 µM | [14] 31.3 µM | [15] 41.7 µM | [16] 30.3 µM | [17] 38.3 µM | [18] 99.5 µM | [19] 22.9 µM | [20] 85.7 µM
34.1 µM: [6]

Cc1c(C(=O)OCc2ccccc2)[n+]([O-])c2cc(Cl)c(Cl)cc2[n+]1[O-]
16.1 µM: [6]
inactive: [1] 16 µM | [2] 13 µM | [3] 18.2 µM | [4] 13.9 µM | [5] 14.2 µM | [7] 11.7 µM | [8] 6.27 µM | [9] 19.5 µM | [10] 19.5 µM | [11] 19.8 µM | [12] 20.6 µM | [13] 14.2 µM | [14] 18.2 µM | [15] 14 µM | [16] 17.5 µM | [17] 22.5 µM | [18] 25.1 µM | [19] 5.37 µM | [20] 18.7 µM

O=c1oc2cc(/N=C/c3ccc4c(c3)OCO4)ccc2c2ccccc12
> 100 µM: [6]
inactive: [1] 35 µM | [2] 65 µM | [3] 56.6 µM | [4] 3.66 µM | [5] 46.3 µM | [7] > 100 µM | [8] > 100 µM | [9] 54.5 µM | [10] 77.4 µM | [11] > 100 µM | [12] > 100 µM | [13] 39.8 µM | [14] 77.1 µM | [15] > 100 µM | [16] 61 µM | [17] 47 µM | [18] > 100 µM | [19] 25.5 µM | [20] 41.4 µM

Cn1[nH]nn/c1=N\N=C\c1ccccc1
inactive: [1] > 10 µM | [2] > 10 µM | [3] > 10 µM | [4] 2.9 µM | [5] > 10 µM | [7] > 10 µM | [8] > 10 µM | [9] > 10 µM | [10] > 10 µM | [11] > 10 µM | [12] > 10 µM | [13] > 10 µM | [14] > 10 µM | [15] > 10 µM | [16] > 10 µM | [17] > 10 µM | [18] > 10 µM | [19] > 10 µM | [20] > 10 µM
> 10 µM: [6]

From ChEMBL document CHEMBL1201862, “PubChem BioAssay data set” (2004)
